We go through five molecules from US11407792B2, “Regulating electron flow using fragmented proteins” (WILLIAM MARSH RICE UNIVERSITY, priority 2017, dated 2022).

The subject of one data set is sFd-35-ER. Kind of data set: Complementation of E. coli EW11 growth by sFd-35-ER with 4-HT and other estrogen receptor modulators. Particulars: for Activation of sFd-35-ER ET (growth complementation): agonists, antagonists and an endocrine disruptor; for Effect of estrogen receptor modulators on complementation of E. coli EW11 by sFd-35-ER, compared to DMSO alone: modulator 50 μM, 200 ng/mL aTc. The class given is cell-based, Escherichia coli. The protocol:
Growth assay. For all growth experiments, E. coli EW11 were freshly transformed with two plasmids, one encoding the e-donor and acceptor pair (FNR and SIR) and the other encoding either a native Fd, a C42A mutant of Ml Fd that is unable to coordinate a 2Fe-2S cluster, or an engineered Fd. Starter cultures were inoculated using single colonies obtained by selecting for colonies containing both plasmids on LB-agar plates. These starter cultures were grown in deep-well 96-well plates for 18 hours at 37° C. in 1 mL of a non-selective modified M9 medium (M9c), which contained sodium phosphate, dibasic (6.8 g/L), sodium phosphate, monobasic (3 g/L), sodium chloride (0.5 g/L), ammonium chloride (1 g/L), calcium chloride (0.1 mM), magnesium sulfate (10 mM), ferric citrate (24 mg/L), p-aminobenzoic acid (2 mg/L), inositol (20 mg/L), adenine (5 mg/L), uracil (20 mg/L), tryptophan (40 mg/L), tyrosine (1.2 mg/L), and the remaining 18 amino acids (80 mg/L each). For auxotroph complementation analysis, starter cultures that had been grown to stationary phase in M9c were diluted ˜1:100 using a 96-well replicator pin into 100 μL of a selective modified M9 medium (M9sa), which is identical to M9c but lacks cysteine and methionine. […] Optical density (OD) measurements were taken every 10 minutes. To select for the Fd and e-donor/acceptor plasmids, all growth steps included chloramphenicol and streptomycin at 34 μg/mL and 100 μg/mL, respectively.
To test whether this domain-insertion strategy can be used to diversify the chemical regulation of sFd-35, the ligand-binding domain (LBD) of the human estrogen receptor (ER) was inserted after residue 35 to create sFd-35-ER (FIG. 26E).
The activity of sFd-35-ER was evaluated by expressing this protein using an aTc-inducible promoter (FIG. 31B). […] This protein was also expressed as a fusion to RFP (sFd-35-ER-RFP) to evaluate how 4-HT affects protein expression.
To evaluate how these different modulators affect sFd-35-ER ET, sFd-35-ER growth complementation was evaluated in the presence of agonists, antagonists, and an endocrine disruptor (FIG. 32D).

The next data set concerns E. coli EW11. In words: E. coli EW11 growth complementation by native, split or engineered Fds. The data set is classed as cell-based, Escherichia coli. As to conditions: after 24 hours; Fd expressed from an aTc-inducible promoter, FNR and SIR constitutive. The method, then: Growth assay. […] Optical density (OD) measurements were taken every 10 minutes.
To rapidly assay ET mediated by engineered Fds, an Escherichia coli sulfide auxotroph (EW11; Barstow et al., 2011), which cannot grow in minimal medium containing sulfate as a sulfur source unless it expresses a synthetic ET chain consisting of a Fd-NADP+ reductase (FNR) electron donor, a Fd electron carrier, and a Fd-dependent sulfite reductase (SIR) electron acceptor, was used (FIG. 25A). Endogenous oxidoreductases were systematically removed from the genome of this strain to insulate Fd-dependent redox pathways from native redox reactions (Barstow et al., 2011). To evaluate Fd ET, Zea mays FNR and SIR were constitutively expressed and a TetR-repressible promoter was used to control the expression of plant-type 2Fe-2S Fds. […]
With this expression strategy, the inventors can quickly assess which split Fds require two fragments to function in complementation assays by assessing growth in the presence and absence of both inducers because growth depended upon the level of anhydrotetracycline (aTc) (FIG. 25B), and thus, the amount of Fd available to mediate ET. […] For these experiments, they assessed split Fd function in the presence of a constant high concentration of aTc, and varying concentrations of IPTG, which selectively drive the distinct promoters. […]

Data set [1] is described as follows: Midpoint potentials by protein film (square wave) voltammetry. Particulars: relative to standard hydrogen electrode, pH 7.0, 23.5° C. The data set is classed as physicochemical. The method, then: Midpoint potentials. Electrochemical experiments were carried out anaerobically in a MBraun Labmaster glovebox using a PGSTAT12 potentiostat. A three-electrode configuration was used in a water-jacketed glass cell. A platinum wire was used as the counter electrode and a standard calomel electrode was used as the reference electrode. Reported potentials are relative to the standard hydrogen electrode. Baseline measurements were collected using an edge-plane graphite (EPG) electrode that was modified with a 100 mM neomycin trisulfate solution, rinsed, and placed into a glass cell containing a 23.5° C. mixed buffer solution (5 mM acetate/MES/MOPS/TAPS/CHES/CAPS) pH 7.0, with 100 mM NaCl. A 5 μL aliquot of 720 μM Ml-Fd or 5 mM sFd-35-ER was applied directly to the electrode surface with or without 1 μL of 50 mM 4-HT, the protein was allowed to […] for approximately one minute at room temperature before being placed into the buffer cell solution. Square wave voltammograms were collected at 23.5° C. with a frequency of 10 Hz and electrochemical signals were analyzed using QSoas.
To investigate if domain insertion affects the reduction potential of Ml-Fd, Ml-Fd and sFd-35-ER were characterized using protein film voltammetry. In the absence of 4-HT, the midpoint potentials of both Ml-Fd and sFd-35-ER (FIG. 27C) were −336 and −320 mV, respectively. […]

For data set [2], the system named is lysates derived from E. coli EW11 expressing FNR and SIR. Kind of data set: Sulfide production assay in cell lysates (sulfidefluor-7 fluorescence). As to conditions: y=0.7×+12.252, r^2=0.983. The class given is biochemical, Escherichia coli. The method, then:
Cell lysates. Electrocompetent E. coli EW11 were transformed with the plasmid (pSAC01) that constitutively expresses Zea mays FNR and SIR. Cells were grown to stationary phase at 37° C. and 250 rpm in 2×YTPG medium (16 g/L tryptone, 10 g/L yeast extract, 5 g/L NaCl, 3 g/L KH2PO4, 7 g/L K2HPO4, and 18 g/L glucose) containing 100 μg/mL streptomycin. Cells from overnight cultures were diluted 1:100 in fresh 2×YTPG medium containing streptomycin, grown for 2 hours at 37° C. while shaking at 250 rpm until mid-log phase, and then shifted to 30° C. and grown for an additional 4 hours. […] Protein content in lysates was quantified using Bio-Rad Protein Assay Dye Reagent Concentrate (Bio-Rad), using bovine serum albumin (NEB) as a standard.
Sulfide production assay. […] Following NADPH or protein addition, reactions were arrayed in a Corning 96 well plate at room temperature (Cost ar #3603), transferred to an Infinite m1000 Pro plate reader (Tecan), and heated to 37° C. and shaken at 250 rpm with fluorescence readings (λex=495 nm, λem=520 nm) every 15 seconds. […]
SIR activity was monitored in desalted cell lysates using sulfidefluor-7 (Lin et al., 2013), a fluorescent probe for hydrogen sulfide. […]

The conditions of data set [3]: Fish et al., 2005; cited from earlier work.
The conditions of data set [4]: Hirasawa et al., 2004; cited from earlier work.

Take `CC(C)(c1ccc(O)cc1)c1ccc(O)cc1` [bisphenol-A]: in the data set on sFd-35-ER, the “Activation of sFd-35-ER ET (growth complementation)” value (shortened to “Activation of sFd-35-ER ET”) is recorded as “activated” and the “Effect of estrogen receptor modulators on complementation of E. coli EW11 by sFd-35-ER, compared to DMSO alone” value (from here on “Effect … compared to DMSO alone”) is on record as “significantly enhance growth”.
Take `CC[C@H](c1ccc(O)cc1)[C@@H](CC)c1ccc(O)cc1` [hexestrol]: in the data set with sFd-35-ER, the “Activation of sFd-35-ER ET” value is recorded as “not activated” and the “Effect … compared to DMSO alone” value was “do not significantly enhance growth”.
Take `Oc1ccc2c(c1)CC[C@H](c1ccccc1)[C@@H]2c1ccc(OCCN2CCCC2)cc1` [lasoxifene]: in the data set with sFd-35-ER, the “Activation of sFd-35-ER ET” value is recorded as “activated” and the “Effect … compared to DMSO alone” value is reported as “significantly enhance growth”.
Regarding “Ml-Fd: Thermostable plant-type 2Fe-2S ferredoxin of Mastigocladus laminosus, UniProt P00248, SEQ ID NO: 11”, the “k1/2, growth complementation as a function of aTc” value in the data set on E. coli EW11 came out at 1.8 ng/mL aTc. The midpoint potential is listed as −336 mV in data set [1] (absence of 4-HT) and −330 mV in data set [1] (presence of 4-HT). Further, in data set [2], the “rate of SF7 fluorescence with increasing concentrations of Ml-Fd” value was “linearly increasing rate”. For the same molecule, the “temperature of optimal ET” value in data set [3] is 65 °C.

B1: SIR: Zea mays Fd-dependent sulfite reductase, electron acceptor (protein, UniProt O23813 51-635, looked up)
Sulfite reductase …: VSAPAKKDASEVKRSKVEIIKEKSNFLRYPLNEELVSEAPNINESAVQLIKFHGSYQQTDRDVRGQKNYSFMLRTKNPCGKVPNQLYLAMDTLADEFGIGTLRLTTRQTFQLHGVLKKNLKTVLSTVIKNMGSTLGACGDLNRNVLAPAAPYVKKDILFAQQTAENIAALLTPQSGAYYDLWVDGEKIMSAEEPPEVTKARNDNSHGTNFPDSPEPIYGTQYLPRKFKVAVTAAGDNSVDILTNDIGVVVVSDDAGEPIGFNIYVGGGMGRTHRVETTFPRLADPLGYVPKEDILYAIKAIVVTQRENGRRDDRKYSRMKYMIDRWGIDRFRAEVEKYYGKKFESFRPLPEWQFNSYLGWQEQGDGKLFYGVHVDNGRVGGQAKKTLREIIEKYNLDVSITPNQNLILCGIDQAWREPITTALAQAGLLEPKDVDPLNLTAMACPALPLCPLAQTEAERGILPILKRIRAVFNKVGIKDSESVVVRITGCPNGCARPYMAELGFVGDGPKSYQIWLGGTPNQSTLAESFMDKVKLDDIEKVLEPLFTYWNGTRQEGESFGSFTNRTGFDKLKEVVNKWAESPSAA
Consider B1, for which, in data set [4], the “[4Fe-4S] E°” value is −415 mV and the siroheme potential is recorded as −285 mV.
